Results: PMC8037310, “Thrombin-Derived Peptides Potentiate the Activity of Gram-Positive-Specific Antibiotics against Gram-Negative Bacteria” (Molecules, 2021)
Where “and” joins values, the source holds several entries; their conditions need not be identical. Equal entries are not always repeated. Where two headings read alike, the source gives them in different places. Peptide text beside a SMILES is read from it.

Experiments:
[1] = tested on: defibrinated sheep blood (red blood cells); test: Hemolysis assay; assay type: cell-based; details: 200 µg/mL compound, 20 h incubation at 37 °C with defibrinated sheep blood, PBS 0.002% Tween20, absorbance 415 nm, relative to 0.1% Triton X-100; n=3 technical replicates
Method in brief: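 % hemolysis is supernatant absorbance at 415 nm, minus the buffer-only background, relative to 0.1% Triton X-100 lysis. Compound dilutions (200–1.56 µg/mL before adding cells) were incubated with an equal volume of red cells for 20 h at 37 °C and 500 rpm. Cells were washed and normalized in PBS/0.002% Tween20 to about 2.5 A415 at full lysis.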

[2] = tested on: E. coli EQASmcr-3 (EQAS 2017 2013-SQ352); assay type: cell-based, Escherichia coli; details: for MICpeptide: peptide alone; for MICpeptide / MSCpeptide / MSCrif: E. coli EQASmcr-3; for MSCpeptide: peptide concentration in the combination with rifampicin giving the lowest FICi; for MSCrif: rifampicin concentration in the combination giving the lowest FICi
[3] = tested on: E. coli EQASmcr-1 (EQAS 2016 412016126); assay type: cell-based, Escherichia coli; details: for MICpeptide: peptide alone; for MICpeptide / MSCpeptide / MSCrif: E. coli EQASmcr-1; for MSCpeptide: peptide concentration in the combination with rifampicin giving the lowest FICi; for MSCrif: rifampicin concentration in the combination giving the lowest FICi
E. coli mcr-1 = assay type: cell-based, Escherichia coli; details: for MICpeptide: peptide alone; for MICpeptide / MSCpeptide / MSCrif: E. coli mcr-1; for MSCpeptide: peptide concentration in the combination with rifampicin giving the lowest FICi; for MSCrif: rifampicin concentration in the combination giving the lowest FICi; for FICi: with rifampicin vs E. coli mcr-1
Method in brief: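 Checkerboard of peptide serial dilutions against rifampicin concentrations in triplicate, in LB with 1.0 × 10^6 CFU/mL final inoculum after mixing the 2.0 × 10^6 CFU/mL stock 1:1, 20 h at 37 °C shaking. OD600 read; FICi = MSCa/MICa + MSCb/MICb, ≤0.5 taken as synergy.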

E. coli BW25113 [4] = assay type: cell-based, Escherichia coli; details: for MICpep: synergist alone, E. coli BW25113, from checkerboard with rifampicin; for MSCpep: synergist concentration in the combination with rifampicin giving the lowest FICi; for FICi: BW25113, 20 h
E. coli BW25113 [5] = test: Checkerboard assay with erythromycin; assay type: cell-based, Escherichia coli; details: for MSCery: erythromycin concentration in the combination with the synergist giving the lowest FICi, E. coli BW25113; for MIC of the peptide (MICpep): synergist alone, from checkerboard with erythromycin; for MIC of the peptide (MICpep) / MSCpeptide, minimum synergistic concentration: E. coli BW25113, LB, 20 h 37 °C; for MSCpeptide, minimum synergistic concentration: synergist concentration in the combination with erythromycin giving the lowest FICi, OD600
A. baumannii ATCC17978 = test: microbe, parasite or virus in culture; assay type: cell-based, Acinetobacter baumannii; details: for MICpeptide: peptide alone; for MICpeptide / MSCpeptide / MSCrif: A. baumannii ATCC17978; for MSCpeptide: peptide concentration in the combination with rifampicin giving the lowest FICi; for MSCrif: rifampicin concentration in the combination giving the lowest FICi
Protocol: (§1) All peptides were screened for antimicrobial activity against E. coli BW25113, E. coli ATCC25922, and E. coli W3110. A select group of the peptides was further tested against E. coli mcr-1, E. coli EQASmcr-1 (EQAS 2016 412016126), E. coli EQASmcr-2 (EQAS 2016 KP37), E. coli EQASmcr-3 (EQAS 2017 2013-SQ352), K. pneumoniae ATCC13883, P. aeruginosa ATCC27853, and A. baumannii ATCC17978. The antimicrobial assay was performed according to CLSI guidelines. Bacteria were plated out directly from their glycerol stocks on blood agar plates, incubated overnight at 37 °C, and then kept in the fridge. The blood agar plates were only used for 2 weeks and then replaced.
(§2) One colony from a blood agar plates was inoculated in Lysogeny Broth (LB) at 37 °C until a 0.5 optical density at 600 nm (OD600) was reached (compared to the sterility control of LB). The bacterial suspension was diluted in fresh LB to 2.0 × 10^6 CFU/mL. The serial dilutions were prepared in polypropylene microtiter plates: a stock of the test compounds was prepared with a 2x final concentration in LB. Moreover, 100 µL of the stock was added to the wells of the top row of which 50 µL was used for the serial dilution. The bottom row of each plate was used as the positive (50 µL of LB) and negative controls (100 µL of LB) (6 wells each). Furthermore, 50 µL of the 2.0 × 10^6 CFU/mL bacterial stock was added to each well except for the negative controls, adding up to a total volume of 100 µL per well. The plates were sealed with a breathable seal and incubated for 20 h at 37 °C and 600 rpm.
(§3) Two 96-well plates were required per compound. A serial dilution of the compound was performed on two plates from row A–G using with LB as medium. Row H was filled with 25 µL medium. On a separate plate a negative control (8 wells, 100 μL medium) was prepared. For all concentrations of antibiotic a specific stock was prepared. 25 µL medium was added to the 0 µg/mL antibiotic columns (plate I, column 1–3). Of each antibiotic stock 25 µL was added to three columns to obtain triplicates for every condition. Both plates contained 50 µL in each well to which 50 µL bacterial stock was added (see the protocol of the MIC assays) and the plates were sealed. After incubation for 20 h at 37 °C while shaking, the breathable seals were removed and the density of the bacterial suspensions measured at 600 nm (OD600) using a Tecan Spark plate reader. The OD600 values were transformed to a 2D gradient with the negative control as minimum and the positive control (wells G1, G2, and G3) as maximum in excel. The FICi was calculated using Equation (1) with a FICi ≤ 0.5 indicating synergy. FICi = (MSCa/MICa) + (MSCb/MICb),(1)
(§4) Calculation of the FICi: MSCa = concentration of the […] in combination with the antibiotic that results in the lowest FICi. MICa = MIC of the antibiotic without synergist (row G). MSCb = concentration of the synergist in combination with the antibiotic that results in the lowest FICi. MICb = MIC of the synergist itself (Column 1–3, plate I).

E. coli BW25113 [6] = test: microbe, parasite or virus in culture; assay type: cell-based, Escherichia coli; details: for MSCnovo: novobiocin concentration in the combination giving the lowest FICi; for MSCnovo / MSCpeptide: E. coli BW25113; for MICpeptide: synergist alone, E. coli BW25113, from checkerboard with novobiocin; for MSCpeptide: synergist concentration in the combination with novobiocin giving the lowest FICi
Protocol: as §1, §2, §3, §4

K. pneumoniae ATCC13883 = test: Checkerboard assay with rifampicin; assay type: cell-based, Klebsiella pneumoniae; details: K. pneumoniae ATCC13883; for MICpeptide: peptide alone; for MSCpeptide: peptide concentration in the combination with rifampicin giving the lowest FICi; for MSCrif: rifampicin concentration in the combination giving the lowest FICi
Protocol: as §1, §2, §3, §4

E. coli BW25113 [7] = test: microbe, parasite or virus in culture; assay type: cell-based, Escherichia coli; details: for FICi: BW25113, 20 h; for MICpeptide: synergist alone, E. coli BW25113, from checkerboard with vancomycin; for MSCpeptide: synergist concentration in the combination with vancomycin giving the lowest FICi; for MSCpeptide / MSCvanco: E. coli BW25113; for MSCvanco: vancomycin concentration in the combination giving the lowest FICi
Protocol: as §1, §2, §3, §4

[8] = with rifampicin vs A. baumannii ATCC17978
[9] = EQASmcr-3 (EQAS 2017 2013-SQ352, 20 h)
[10] = EQASmcr-1 (EQAS 2016 412016126, 20 h)

Compound | Hemolysis [1] | MICpeptide [2] [µg/mL] | MSCpeptide [2] [µg/mL] | MSCrif [2] [µg/mL] | MICpeptide [3] [µg/mL] | MSCpeptide [3] [µg/mL] | MSCrif [3] [µg/mL] | MICpeptide (E. coli mcr-1) [µg/mL] | MSCpeptide (E. coli mcr-1) [µg/mL] | MSCrif (E. coli mcr-1) [µg/mL] | FICi (E. coli mcr-1) | MICpep (E. coli BW25113 [4]) [µg/mL] | MSCpep (E. coli BW25113 [4]; E. coli BW25113) [µg/mL] | MSCery (E. coli BW25113 [5]) [µg/mL] | MIC of the peptide (MICpep) (E. coli BW25113 [5]) [µg/mL] | MSCpeptide, minimum synergistic concentration (E. coli BW25113 [5]) | MICpeptide (A. baumannii ATCC17978) [µg/mL] | MSCpeptide (A. baumannii ATCC17978) [µg/mL] | MSCrif (A. baumannii ATCC17978) [µg/mL] | MSCnovo (E. coli BW25113 [6]) [µg/mL] | other results
CC[C@H](C)[C@H](NC(=O)[C@@H](NC(=O)[C@H](CCCCN)NC(=O)[C@H](CCC(N)=O)NC(=O)[C@@H](NC(=O)[C@H](Cc1c[nH]c2ccccc12)NC(=O)[C@H](CCCCN)NC(=O)[C@H](CCCCN)NC(=O)[C@H](CC(C)C)NC(=O)[C@H](C)NC(=O)[C@H](Cc1ccccc1)NC(=O)[C@@H](N)C(C)C)[C@@H](C)CC)C(C)C)C(N)=O [peptide 10] (H-VFALKKWIQKVI-NH2) | 3.8% and 4% | 200 | 12.5 | 0.125 | 200 | 12.5 | 0.125 | > 200 | 25 | 0.188 | 0.0781 | 100 | 12.5 | 3.125 | 100 | 12.5 µg/mL | 50 | 3.125 | 0.125 | 6.25 | FICi ([2]; with rifampicin vs E. coli EQASmcr-3): 0.0781; FICi ([3]; with rifampicin vs E. coli EQASmcr-1): 0.0781; FICi (A. baumannii ATCC17978; [8]): 0.1250; MICpeptide (E. coli BW25113 [6]): 100 µg/mL; MSCpeptide (E. coli BW25113 [6]): 6.25 µg/mL; FICi (E. coli BW25113 [6]; with novobiocin vs E. coli BW25113): 0.0781; MICpeptide (K. pneumoniae ATCC13883): > 200 µg/mL; MSCpeptide (K. pneumoniae ATCC13883): 12.5 µg/mL; MSCrif (K. pneumoniae ATCC13883): 1 µg/mL; FICi (E. coli BW25113 [7]): 0.1563; MICpeptide (E. coli BW25113 [7]): 100 µg/mL; MSCpeptide (E. coli BW25113 [7]): 12.5 µg/mL; MSCvanco (E. coli BW25113 [7]): 12.5 µg/mL
CC[C@H](C)[C@H](NC(=O)[C@@H](NC(=O)[C@H](CCCCN)NC(=O)[C@H](CCC(N)=O)NC(=O)[C@@H](NC(=O)[C@H](Cc1c[nH]c2ccccc12)NC(=O)[C@H](CCCCN)NC(=O)[C@H](CCCCN)NC(=O)[C@H](CC(C)C)NC(=O)[C@H](CCCNC(=N)N)NC(=O)[C@H](Cc1ccccc1)NC(=O)[C@@H](N)C(C)C)[C@@H](C)CC)C(C)C)C(N)=O [peptide 6] (H-VFRLKKWIQKVI-NH2) | 4.0% | 50 | 3.125 | 0.125 | 100 | 6.25 | 0.125 | 100 | 12.5 | 0.188 | 0.1406 | 25 | 3.125 | 12.5 | 12.5 | 3.125 µg/mL and 3.13 µg/mL | 50 | 3.125 | 0.125 | 25 | FICi [2, 9]: 0.0781; FICi [3, 10]: 0.0781; FICi (E. coli BW25113 [4]): 0.1563; MSCrif (E. coli BW25113 [4]; rifampicin concentration in the combination giving the lowest FICi, E. coli BW25113): 0.25 µg/mL; FICi (A. baumannii ATCC17978; [8]): 0.1250; FICi (E. coli BW25113 [6]; BW25113, 20 h): 0.1875; MICpeptide (E. coli BW25113 [6]): 12.5 µg/mL; MSCpeptide (E. coli BW25113 [6]): 1.563 µg/mL; MICpeptide (K. pneumoniae ATCC13883): 100 µg/mL; MSCpeptide (K. pneumoniae ATCC13883): 3.125 µg/mL; MSCrif (K. pneumoniae ATCC13883): 1 µg/mL; MICpeptide (E. coli BW25113 [7]): 25 µg/mL; MSCpeptide (E. coli BW25113 [7]): 3.125 µg/mL; MSCvanco (E. coli BW25113 [7]): 25 µg/mL
CC[C@H](C)[C@H](NC(=O)[C@@H](NC(=O)[C@H](CCCCN)NC(=O)[C@H](CCC(N)=O)NC(=O)[C@@H](NC(=O)[C@H](C)NC(=O)[C@H](CCCCN)NC(=O)[C@H](CCCCN)NC(=O)[C@H](CC(C)C)NC(=O)[C@H](CCCNC(=N)N)NC(=O)[C@H](Cc1ccccc1)NC(=O)[C@@H](N)C(C)C)[C@@H](C)CC)C(C)C)C(N)=O [peptide 14] (H-VFRLKKAIQKVI-NH2) | 0.9% and 1% | > 200 | 12.5 | 0.125 | > 200 | 12.5 | 0.5 | > 200 | 25 | 0.75 | 0.1250 | > 200 | 50 | 12.5 | > 200 | 6.25 µg/mL | > 200 | 6.25 | 0.125 | 6.25 | FICi [2, 9]: 0.0469; FICi [3, 10]: 0.0938; FICi (E. coli BW25113 [4]): 0.1406; FICi (A. baumannii ATCC17978; ATCC17978, 20 h): 0.0781; FICi (E. coli BW25113 [6]; BW25113, 20 h): 0.0313; MICpeptide (E. coli BW25113 [6]): > 200 µg/mL; MSCpeptide (E. coli BW25113 [6]): 6.25 µg/mL; MICpeptide (K. pneumoniae ATCC13883): > 200 µg/mL; MSCpeptide (K. pneumoniae ATCC13883): 6.25 µg/mL; MSCrif (K. pneumoniae ATCC13883): 0.25 µg/mL; FICi (E. coli BW25113 [7]): 0.2500; MICpeptide (E. coli BW25113 [7]): > 200 µg/mL; MSCpeptide (E. coli BW25113 [7]): 50 µg/mL; MSCvanco (E. coli BW25113 [7]): 50 µg/mL
